Source: US11319315B2, “Cyclohexyl acid triazole azoles as LPA antagonists” (BRISTOL-MYERS SQUIBB COMPANY, priority 2017, dated 2022)

Molecular target: T1, human LPA1 (Homo sapiens, UniProt Q92633)
T1 construct: expressed in transfected cells; host or cells: Chinese hamster ovary (CHO) cells
Test: LPA1 functional antagonist assay (LPA-induced calcium flux in CHO cells overexpressing human LPA1)
Assay type: cell-based
Conditions: inhibition of calcium flux induced by 10 nM LPA, CHO cells overexpressing human LPA1; read-out: hLPA1 IC50
Procedure, shortened: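 Calcium flux was triggered by 10 nM LPA after 20 min room-temperature compound pre-incubation (final 0.08 nM to 5 μM, 0.5% DMSO) in human LPA1-overexpressing CHO cells carrying calcium dye. Buffer: HBSS with Ca/Mg, 20 mM HEPES, 0.1% fatty-acid-free BSA; IC50s from 4-parameter logistic fits.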

T1 sequence (Q92633 whole entry): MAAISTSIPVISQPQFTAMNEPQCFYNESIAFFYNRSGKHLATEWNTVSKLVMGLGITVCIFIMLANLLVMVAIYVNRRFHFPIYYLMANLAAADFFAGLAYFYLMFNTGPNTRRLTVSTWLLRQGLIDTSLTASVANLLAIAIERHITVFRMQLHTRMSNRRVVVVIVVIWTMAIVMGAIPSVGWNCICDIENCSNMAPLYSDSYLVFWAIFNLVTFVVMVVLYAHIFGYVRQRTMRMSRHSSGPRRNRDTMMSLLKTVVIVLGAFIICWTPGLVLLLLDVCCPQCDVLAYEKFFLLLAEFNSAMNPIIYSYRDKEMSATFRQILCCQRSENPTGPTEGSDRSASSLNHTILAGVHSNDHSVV

SMILES | IC50 [nM]
Cc1nc(-c2nnn(C)c2Cn2nnnc2CCC(C)C)ccc1O[C@H]1CCC[C@H](C(=O)O)C1 [Example 309, (1S,3S)-3-{[2-methyl-6-(1-methyl-5-{[5-(3-methylbutyl)-1H-1,2,3,4-tetrazol-1-yl]methyl}-1H-1,2,3-triazol-4-yl)pyridin-3-yl]oxy}cyclohexane-1-carboxylic acid] | 191
Cc1nc(-c2nnn(C)c2Cn2nnnc2N2CCCC2)ccc1O[C@H]1CCC[C@H](C(=O)O)C1 [Example 311, (1S,3S)-3-{[2-methyl-6-(1-methyl-5-{[5-(pyrrolidin-1-yl)-1H-1,2,3,4-tetrazol-1-yl]methyl}-1H-1,2,3-triazol-4-yl)pyridin-3-yl]oxy}cyclohexane-1-carboxylic acid] | 605
Cc1nc(-c2nnn(C)c2Cn2nnc(N3CCCC3)n2)ccc1O[C@H]1CCC[C@H](C(=O)O)C1 [Example 312, (1S,3S)-3-{[2-methyl-6-(1-methyl-5-{[5-(pyrrolidin-1-yl)-2H-1,2,3,4-tetrazol-2-yl]methyl}-1H-1,2,3-triazol-4-yl)pyridin-3-yl]oxy}cyclohexane-1-carboxylic acid] | 234
COc1cccc(Cc2nnnn2Cc2c(-c3ccc(O[C@H]4CCC[C@H](C(=O)O)C4)c(C)n3)nnn2C)c1 [Example 313, (1S,3S)-3-({6-[5-({5-[(3-methoxy-phenyl)methyl]-1H-1,2,3,4-tetrazol-1-yl}methyl)-1-methyl-1H-1,2,3-triazol-4-yl]-2-methylpyridin-3-yl}oxy)cyclohexane-1-carboxylic acid] | 277
COc1cccc(Cc2nnn(Cc3c(-c4ccc(O[C@H]5CCC[C@H](C(=O)O)C5)c(C)n4)nnn3C)n2)c1 [Example 314, (1S,3S)-3-({6-[5-({5-[(3-methoxy-phenyl)methyl]-2H-1,2,3,4-tetrazol-2-yl}methyl)-1-methyl-1H-1,2,3-triazol-4-yl]-2-methylpyridin-3-yl}oxy)cyclohexane-1-carboxylic acid] | 12
Cc1nc(-c2nnn(C)c2Cn2nnnc2CC2CCCC2)ccc1O[C@H]1CCC[C@H](C(=O)O)C1 [Example 315, (1S,3S)-3-{[6-(5-{[5-(cyclopentyl-methyl)-1H-1,2,3,4-tetrazol-1-yl]methyl}-1-methyl-1H-1,2,3-triazol-4-yl)-2-methylpyridin-3-yl]oxy}cyclohexane-1-carboxylic acid] | 154
Cc1nc(-c2nnn(C)c2Cn2ccc(Cc3ccccc3)n2)ccc1O[C@H]1CCC[C@H](C(=O)O)C1 [Example 317, (1S,3S)-3-((6-(5-((3-benzyl-1H-pyrazol-1-yl)methyl)-1-methyl-1H-1,2,3-triazol-4-yl)-2-methylpyridin-3-yl)oxy)cyclo-hexane-1-carboxylic acid] | 63
Cc1nc(-c2nnn(C)c2Cn2nnc(-c3cccc(F)c3)n2)ccc1O[C@H]1CCC[C@H](C(=O)O)C1 [Example 320, (1S,3S)-3-((6-(5-((5-(3-fluoro-phenyl)-2H-tetrazol-2-yl)methyl)-1-methyl-1H-1,2,3-triazol-4-yl)-2-methylpyridin-3-yl)oxy)cyclo-hexane-1-carboxylic acid] | 58
Cc1nc(-c2nnn(C)c2Cn2nnnc2-c2cccc(F)c2)ccc1O[C@H]1CCC[C@H](C(=O)O)C1 [Example 321, (1S,3S)-3-((6-(5-((5-(3-fluoro-phenyl)-1H-tetrazol-1-yl)methyl)-1-methyl-1H-1,2,3-triazol-4-yl)-2-methylpyridin-3-yl)oxy)cyclo-hexane-1-carboxylic acid] | 428
Cc1nc(-c2nnn(C)c2Cn2nnc(-c3ccc(F)cc3)n2)ccc1O[C@H]1CCC[C@H](C(=O)O)C1 [Example 322, (1S,3S)-3-((6-(5-((5-(4-fluoro-phenyl)-2H-tetrazol-2-yl)methyl)-1-methyl-1H-1,2,3-triazol-4-yl)-2-methylpyridin-3-yl)oxy)cyclo-hexane-1-carboxylic acid] | 243
Cc1nc(-c2nnn(C)c2Cn2nnnc2-c2ccc(F)cc2)ccc1O[C@H]1CCC[C@H](C(=O)O)C1 [Example 323, (1S,3S)-3-((6-(5-((5-(4-fluoro-phenyl)-1H-tetrazol-1-yl)methyl)-1-methyl-1H-1,2,3-triazol-4-yl)-2-methylpyridin-3-yl)oxy)cyclo-hexane-1-carboxylic acid] | 414
Cc1nc(-c2nnn(C)c2Cn2nnc(Cc3ccc(Cl)cc3)n2)ccc1O[C@H]1CCC[C@H](C(=O)O)C1 [Example 324, (1S,3S)-3-((6-(5-((5-(4-chloro-benzyl)-2H-tetrazol-2-yl)methyl)-1-methyl-1H-1,2,3-triazol-4-yl)-2-methylpyridin-3-yl)oxy)cyclo-hexane-1-carboxylic acid] | 38
Cc1nc(-c2nnn(C)c2Cn2nnnc2Cc2ccc(Cl)cc2)ccc1O[C@H]1CCC[C@H](C(=O)O)C1 [Example 325, (1S,3S)-3-((6-(5-((5-(4-chloro-benzyl)-1H-tetrazol-1-yl)methyl)-1-methyl-1H-1,2,3-triazol-4-yl)-2-methylpyridin-3-yl)oxy)cyclo-hexane-1-carboxylic acid] | 167

Results, then the compound that gave them:

IC50 [nM] | SMILES
32 | CCc1nc(-c2nnn(C)c2Cn2nnc(CC3CC3)n2)ccc1O[C@H]1CCC[C@H](C(=O)O)C1 [Example 307, (1S,3S)-3-{[6-(5-{[5-(cyclopropyl-methyl)-2H-1,2,3,4-tetrazol-2-yl]methyl}-1-methyl-1H-1,2,3-triazol-4-yl)-2-ethylpyridin-3-yl]oxy}cyclohexane-1-carboxylic acid]
714 | Cc1nc(-c2nnn(C)c2Cn2nnc(C3CCOCC3)n2)ccc1O[C@H]1CCC[C@H](C(=O)O)C1 [Example 308, (1S,3S)-3-{[2-methyl-6-(1-methyl-5-{[5-(oxan-4-yl)-2H-1,2,3,4-tetrazol-2-yl]methyl}-1H-1,2,3-triazol-4-yl)pyridin-3-yl]oxy}cyclohexane-1-carboxylic acid]
24 | Cc1nc(-c2nnn(C)c2Cn2nnc(CCC(C)C)n2)ccc1O[C@H]1CCC[C@H](C(=O)O)C1 [Example 310, (1S,3S)-3-{[2-methyl-6-(1-methyl-5-{[5-(3-methylbutyl)-2H-1,2,3,4-tetrazol-2-yl]methyl}-1H-1,2,3-triazol-4-yl)pyridin-3-yl]oxy}cyclohexane-1-carboxylic acid]
22 | Cc1nc(-c2nnn(C)c2Cn2nnc(OCCC3CC3)n2)ccc1O[C@H]1CCC[C@H](C(=O)O)C1 [Example 316, (1 S,3S)-3-((6-(5-((5-(2-cyclopropylethoxy)-2H-tetrazol-2-yl)methyl)-1-methyl-1H-1,2,3-triazol-4-yl)-2-methylpyridin-3-yl)oxy)cyclohexane-1-carboxylic acid]
414 | CCc1nnn(Cc2c(-c3ccc(O[C@H]4CCC[C@H](C(=O)O)C4)c(C)n3)nnn2C)n1 [Example 318, (1S,3S)-3-((6-(5-((5-ethyl-2H-tetrazol-2-yl)methyl)-1-methyl-1H-1,2,3-triazol-4-yl)-2-methylpyridin-3-yl)oxy)cyclo-hexane-1-carboxylic acid]
673 | Cc1nc(-c2nnn(C)c2Cn2nnnc2C2CC2)ccc1O[C@H]1CCC[C@H](C(=O)O)C1 [Example 319, (1S,3S)-3-((6-(5-((5-cyclopropyl-1H-tetrazol-1-yl)methyl)-1-methyl-1H-1,2,3-triazol-4-yl)-2-methylpyridin-3-yl)oxy)cyclo-hexane-1-carboxylic acid]
